Our source for the IC50 and EC50 values is the Kinase Knowledgebase extract (Sharma et al. 2016).

What is called IC50 is the midpoint of a concentration-inhibition curve. A low value points to greater potency in that assay. Usually EC50 stands for the concentration giving half of the maximal effect.

In the first test the target is PIK3CB (Human) (UniProt P42338). The test is described as follows: Enzyme Assay.
Sequence of PIK3CB (Human) (P42338 whole entry, looked up): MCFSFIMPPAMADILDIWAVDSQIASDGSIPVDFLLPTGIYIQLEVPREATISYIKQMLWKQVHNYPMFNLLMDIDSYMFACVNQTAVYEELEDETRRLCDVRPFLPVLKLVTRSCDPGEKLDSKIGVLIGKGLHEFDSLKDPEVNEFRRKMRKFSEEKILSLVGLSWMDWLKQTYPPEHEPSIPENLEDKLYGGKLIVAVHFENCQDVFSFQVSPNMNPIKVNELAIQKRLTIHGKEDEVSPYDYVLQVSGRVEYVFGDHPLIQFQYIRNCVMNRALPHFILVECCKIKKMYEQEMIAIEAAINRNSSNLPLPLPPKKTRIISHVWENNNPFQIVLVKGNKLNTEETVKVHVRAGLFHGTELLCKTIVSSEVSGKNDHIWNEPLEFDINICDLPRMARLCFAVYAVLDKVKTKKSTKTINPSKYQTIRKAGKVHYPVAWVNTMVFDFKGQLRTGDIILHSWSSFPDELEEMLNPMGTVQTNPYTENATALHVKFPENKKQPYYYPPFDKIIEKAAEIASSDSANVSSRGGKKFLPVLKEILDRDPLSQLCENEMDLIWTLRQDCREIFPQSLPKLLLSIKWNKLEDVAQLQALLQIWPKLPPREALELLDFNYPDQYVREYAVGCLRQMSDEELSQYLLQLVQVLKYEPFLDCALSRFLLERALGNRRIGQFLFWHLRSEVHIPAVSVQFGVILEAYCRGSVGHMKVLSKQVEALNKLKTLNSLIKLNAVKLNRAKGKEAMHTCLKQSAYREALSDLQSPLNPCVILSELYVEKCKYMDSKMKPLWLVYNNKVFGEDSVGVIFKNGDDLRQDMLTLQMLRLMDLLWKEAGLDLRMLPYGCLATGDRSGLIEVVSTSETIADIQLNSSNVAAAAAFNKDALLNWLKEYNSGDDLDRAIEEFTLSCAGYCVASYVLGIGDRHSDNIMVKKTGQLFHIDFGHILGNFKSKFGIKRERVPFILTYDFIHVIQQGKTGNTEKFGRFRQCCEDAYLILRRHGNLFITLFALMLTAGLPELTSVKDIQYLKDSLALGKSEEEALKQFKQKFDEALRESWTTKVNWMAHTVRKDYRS
Settings: not given
Consider `CC1=NC(=O)C2SC(N3CCOCC3)=NC2N1Cc1cccc(C(F)(F)F)c1C` (configuration not stated), for which the IC50 was 0.000631 µM.

`Cc1c(Cc2c(O)nn3c(O)cc(C4CCOCC4)nc23)cccc1C(F)(F)F`: the IC50 stood at 0.0631 µM.

A further test has the same target. Kind of test: Cell-Based Assay. The settings on record: mda-mb-468.
The compound `Cc1nn2c(NC(N)=O)cc(N3CCOCC3)nc2c1Cc1cccc(C(F)(F)F)c1C` displayed an EC50 of 1.26 µM.

Consider `COc1nn2c(O)cc(-c3ccncc3)nc2c1Cc1cccc(Cl)c1Cl`, for which the EC50 amounted to 25.1 µM.

With `Nc1nn2c(O)cc(C3CCOCC3)nc2c1Cc1cccc(Cl)c1Cl`, the concentration giving a half-maximal response (EC50) came to 10 µM.

On to `Cc1c(Cc2cnn3c(O)cc(-c4ccncc4)nc23)cccc1C(F)(F)F`, for which the EC50 was found to be 15.8 µM.

As for `Cc1nn2c(O)cc(N3CCOCC3)nc2c1Cc1cccc2ccccc12`, the concentration for a half-maximal effect (EC50) was 3.98 µM.

As for `Cc1nn2c(O)cc(C3CCOCC3)nc2c1Cc1cccc(C(F)(F)F)c1C`, the EC50 came out at 15.8 µM.

`Cc1nn2c(C(N)=O)cc(N3CCOCC3)nc2c1Cc1cccc(C(F)(F)F)c1C`: the EC50 was 2 µM.

Compound `Cc1c(Cc2cnn3c(O)cc(N4CCOCC4)nc23)cccc1C(F)(F)F` showed an EC50 of 3.16 µM.

For `Cc1nn2c(C(=O)O)cc(N3CCOCC3)nc2c1Cc1cccc(C(F)(F)F)c1C`, the EC50 is 3.16 µM.

`Cc1nn2c(O)cc(N3CCOCC3)nc2c1Cc1cccc(C(F)(F)F)c1C`: the EC50 turned out to be 5.01 µM.
